Experimental findings from PMC4603778, “Encoded Library Synthesis Using Chemical Ligation and the Discovery of sEH Inhibitors from a 334-Million Member Library” (Scientific Reports, 2015) are described below.

Structures are written as SMILES.

The experiment addresses T1, soluble epoxide hydrolase (sEH) (Homo sapiens, UniProt P34913).
T1 construct: gene EPHX2; His-tagged sEH protein (used in the selection)
T1 sequence (P34913 1-555): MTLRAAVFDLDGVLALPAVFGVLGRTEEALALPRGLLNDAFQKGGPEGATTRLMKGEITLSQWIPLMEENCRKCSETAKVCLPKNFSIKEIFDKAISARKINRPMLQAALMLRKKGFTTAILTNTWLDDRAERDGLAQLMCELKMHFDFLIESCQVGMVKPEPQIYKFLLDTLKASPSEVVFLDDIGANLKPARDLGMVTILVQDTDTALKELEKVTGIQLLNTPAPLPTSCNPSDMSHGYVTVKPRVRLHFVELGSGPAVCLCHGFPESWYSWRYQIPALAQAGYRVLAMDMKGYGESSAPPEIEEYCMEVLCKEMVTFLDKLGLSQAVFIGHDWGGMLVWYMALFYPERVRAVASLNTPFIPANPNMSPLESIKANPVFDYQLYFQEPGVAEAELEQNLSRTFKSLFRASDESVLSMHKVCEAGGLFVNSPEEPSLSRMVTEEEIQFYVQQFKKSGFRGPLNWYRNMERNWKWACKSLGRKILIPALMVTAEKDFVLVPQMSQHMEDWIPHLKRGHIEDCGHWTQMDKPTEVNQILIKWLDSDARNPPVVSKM
Briefly: biochemical sEH inhibition assay of off-DNA compound (methyl in place of DNA linker); building-block combination enriched in affinity selection.

Usually IC50 stands for the point on the concentration scale where inhibition reaches its midpoint. As for `CN(CCn1cccn1)C(=O)c1ccc(-c2cccc(C(=O)NC3CCCCC3)c2)nc1` [compound 12], the concentration for half-maximal inhibition (IC50) worked out at 2 nM.
